Reference: patent US5416070A, “Composition for macrophage activation” (ImmunoTherapeutics, Inc., priority 1990, dated 1995)

Tests used:
Type in all cases: cell-based
[1] = tested on: Human peripheral blood mononuclear cells; test: Activation of monocytes in vitro measured by in vitro tumor cell cytotoxicity
Protocol: Human peripheral blood mononuclear cells were isolated by density gradient centrifugation on 46% Percoll. 1×10^5 of the mononuclear cells were plated onto Falcon microliter plates and allowed to adhere for two hours. The non-adherent cells were removed and fresh media added. The cells were allowed to incubate for 24 hours after which various concentrations of the drug either alone or incorporated in liposomes was added. After 24 hours, the plates were washed and 1×10^4 I^125 labelled target cells were added. Following an additional 72 hours of coincubation, the plates were washed and the residual radioactivity determined. The specific cytotoxicity was calculated from the formula: [formula] The results of cytotoxicity assay of various compounds alone or incorporated in liposomes at various concentrations is given in Table 6.

[2] = tested on: human peripheral blood monocytes; test: Activation of monocytes in vitro measured by production of tumor necrosis factor (ELISA); settings: for TNF (pg/ml) at given Concentration of Compound: 24 Hours
Protocol: (§1) Human peripheral blood monocytes were isolated by density gradient centrifugation as noted in Example 13. The cell number was adjusted to 5×10^5 cells per ml in RPM 1640 media containing 5% human AB negative serum. One ml containing 5×10^5 cells were placed in individual wells of a 24-well Plastek tissue culture plate. Various drugs in a volume of 0.5 ml were added at time zero. The cells were incubated at 37° C. in a 5% CO2 atmosphere. Aliquots (0.1 ml) of the supernatant were removed at 24 hours and frozen at -80° C. These samples were subsequently assayed for tumor necrosis factor (TNF) activity using a commercially available ELISA Assay from T-Cell Sciences (Cambridge, Mass.).
Human peripheral blood monocytes were isolated by density gradient centrifugation as described in Example 13. The cells were plated in 24-well microliter plates as described in Example 33. The compounds Were prepared in liposomes as described in Example 10, and assayed for TNF production, as described in Example 33. The results are set forth in Table 5, and show significant levels of TNF compared to controls.
as §1, with “of” for “of a”, “zero. The compounds were also formulated in liposomes as described in Example 10, and added in a volume of 0.5 ml to individual wells of a 24-well Plastek tissue culture plate.” for “zero.”, “-20°” for “-80°”, “TNF as described in Example 33 and Interleukin-1-beta (IL-1β)” for “tumor necrosis factor (TNF) activity”, “kit” for “Assay”, “Cistron (Pine Brook, N.J.).” for “T-Cell Sciences (Cambridge, Mass.).”

[3] = tested on: human peripheral blood monocytes; test: Activation of monocytes in vitro measured by production of Interleukin-1-beta (ELISA); settings: 24 Hours
Protocol: as §1, with “of” for “of a”, “zero. The compounds were also formulated in liposomes as described in Example 10, and added in a volume of 0.5 ml to individual wells of a 24-well Plastek tissue culture plate.” for “zero.”, “-20°” for “-80°”, “TNF as described in Example 33 and Interleukin-1-beta (IL-1β)” for “tumor necrosis factor (TNF) activity”, “kit” for “Assay”, “Cistron (Pine Brook, N.J.).” for “T-Cell Sciences (Cambridge, Mass.).”

[4] = PC/PG liposomes (7:3), 0.1 μg/ml
[5] = PC/PG liposomes (7:3), 1.0 μg/ml
[6] = PC/PG liposomes (7:3), 10.0 μg/ml
[7] = no formulation given (drug alone), 0.1 μg/ml
[8] = no formulation given (drug alone), 1.0 μg/ml
[9] = no formulation given (drug alone), 10.0 μg/ml
[10] = Experiment 3, free drug in saline 0.1 μg/ml, 24 hours
[11] = Experiment 3, free drug in saline 1.0 μg/ml, 24 hours
[12] = Experiment 3, free drug in saline 10.0 μg/ml, 24 hours
[13] = Table 7, Experiment 1, 0.01 μg/ml
[14] = Table 7, Experiment 1, 0.1 μg/ml
[15] = Table 7, Experiment 1, 1.0 μg/ml
[16] = Table 7, Experiment 1, 10.0 μg/ml
[17] = Table 8, Experiment 1, 0.01 μg/ml
[18] = Table 8, Experiment 1, 0.1 μg/ml
[19] = Table 8, Experiment 1, 1.0 μg/ml
[20] = Table 8, Experiment 1, 10.0 μg/ml
[21] = Table 9, Experiment 2, 0.1 μg/ml
[22] = Table 9, Experiment 2, 1.0 μg/ml
[23] = Table 9, Experiment 2, 10.0 μg/ml

Structure (SMILES)	TNF Level [2, 10]	TNF Level [2, 11]	TNF Level [2, 12]	TNF (pg/ml) at given Concentration of Compound [2, 14]	TNF (pg/ml) at given Concentration of Compound [2, 15]	TNF (pg/ml) at given Concentration of Compound [2, 16]	IL-1-beta (pg/ml) at given Concentration of Compound [3, 17]	IL-1-beta (pg/ml) at given Concentration of Compound [3, 18]	IL-1-beta (pg/ml) at given Concentration of Compound [3, 19]	IL-1-beta (pg/ml) at given Concentration of Compound [3, 20]	also measured
CCCCCCCCCCCCCCCC(=O)OCC(COC(=O)CCCCCCCCCCCCCCC)NC(=O)C(C)NC(=O)CCC(NC(=O)C(C)NC(=O)C(C)OC1C(NC(C)=O)C(O)OC(CO)C1OC1OC(CO)C(O)C(O)C1NC(C)=O)C(N)=O [Compound IA, 4-O-[2-acetamido-2-deoxy-β-D-glucopyranosyl]-2-acetamido-2-deoxy-3-O-[D-2-propanoyl-L-alanyl-D-isoglutaminyl-L-alanyl-2-(1,3-dipalmitoyloxy)propylamide]-D-glucopyranose]	280 pg/mL	1000 pg/mL	1680 pg/mL	–	–	–	–	–	–	–	Cytotoxicity [1, 4]: 7.0%; Cytotoxicity [1, 5]: 7.0%; Cytotoxicity [1, 6]: 6.0%; Cytotoxicity ([1]; PC/PS liposomes (7:3), 0.1 μg/ml): 8.0%; Cytotoxicity ([1]; PC/PS liposomes (7:3), 1.0 μg/ml): 5.0%; Cytotoxicity ([1]; PC/PS liposomes (7:3), 10.0 μg/ml): 19.0%; Cytotoxicity [1, 7]: 1.0%; Cytotoxicity [1, 8]: 4.0%; Cytotoxicity [1, 9]: 3.0%; TNF Level ([2]; Table 5, compound incorporated in liposomes, 0.1 μg/ml): 430 pg/mL; TNF Level ([2]; Table 5, compound incorporated in liposomes, 1.0 μg/ml): 800 pg/mL; TNF Level ([2]; Table 5, compound incorporated in liposomes, 10.0 μg/ml): 750 pg/mL
CCCCCCCCCCCCCCCC(=O)OCC(COC(=O)CCCCCCCCCCCCCCC)NC(=O)C(C)NC(=O)CCC(NC(=O)C(C)NC(=O)C(C)OC1C(NC(C)=O)C(O)OC(CO)C1OC1OC(CO)C(O)C(O)C1NC(C)=O)C(N)=O [Compound IB, GlcNAcMurNAc-L-Ala-D-isoGln-D-Ala-NHDPG]	180 pg/mL	350 pg/mL	1980 pg/mL	–	–	–	–	–	–	–	–
CCCCCCCCCCCCCCCC(=O)OCC(COC(=O)CCCCCCCCCCCCCCC)NC(=O)C(C)NC(=O)CCC(NC(=O)C(C)NC(=O)C(C)OC1C(NC(C)=O)C(O)OC(CO)C1OC1OC(CO)C(O)C(O)C1NC(C)=O)C(N)=O [Compound IC, GlcNAcMurNAc-D-Ala-D-isoGln-D-Ala-NHDPG]	280 pg/mL	300 pg/mL	250 pg/mL	–	–	–	–	–	–	–	Cytotoxicity [1, 4]: 10.0%; Cytotoxicity [1, 5]: 4.0%; Cytotoxicity [1, 6]: 12.0%; Cytotoxicity [1, 7]: 5.0%; Cytotoxicity [1, 8]: 16.0%; Cytotoxicity [1, 9]: 15.0%
CCCCCCCCCCCCCCCC(=O)OCC(COC(=O)C(C)NC(=O)CCC(NC(=O)C(C)NC(=O)C(C)OC1C(NC(C)=O)C(O)OC(CO)C1OC1OC(CO)C(O)C(O)C1NC(C)=O)C(N)=O)OC(=O)CCCCCCCCCCCCCCC [Compound IIB, 4-O-[2-acetamido-2-deoxy-β-D-glucopyranosyl]-2-acetamido-2-deoxy-3-O-[D-2-propanoyl-L-alanyl-D-isoglutaminyl-D-alanyl-1,2-dipalmitoyl-sn-glycerol]-D-glucopyranose]	250 pg/mL	500 pg/mL	1600 pg/mL	–	–	–	–	–	–	–	–
CCCCCCCCCCCCCCCC(=O)OCC(COC(=O)C(C)NC(=O)CCC(NC(=O)C(C)NC(=O)C(C)OC1C(NC(C)=O)C(O)OC(CO)C1OC1OC(CO)C(O)C(O)C1NC(C)=O)C(N)=O)OC(=O)CCCCCCCCCCCCCCC [Compound IIC, GlcNAcMurNAc-D-Ala-D-isoGln-D-Ala-DPG]	–	–	–	–	–	–	–	–	–	–	TNF Level ([2]; Experiment 4, free drug in saline 0.1 μg/ml, 24 hours): 40 pg/mL; TNF Level ([2]; Experiment 4, free drug in saline 1.0 μg/ml, 24 hours): 110 pg/mL; TNF Level ([2]; Experiment 4, free drug in saline 10.0 μg/ml, 24 hours): 450 pg/mL
CC(=O)NC1C(OC2C(CO)OC(O)C(NC(C)=O)C2OC(C)C(=O)NC(C(=O)NC(CCC(=O)O)C(N)=O)C(C)O)OC(CO)C(O)C1O [GlcNAcMurNAc-L-Thr-D-isoGln]	–	–	–	440 pg/mL	1050 pg/mL	1050 pg/mL	50 pg/mL	70 pg/mL	230 pg/mL	630 pg/mL	TNF (pg/ml) at given Concentration of Compound [2, 13]: 200 pg/mL
CCCCCCCCCCCCCCCC(=O)OCC(COC(=O)CCCCCCCCCCCCCCC)NC(=O)C(C)NC(=O)CCC(NC(=O)C(NC(=O)C(C)OC1C(NC(C)=O)C(O)OC(CO)C1OC1OC(CO)C(O)C(O)C1NC(C)=O)C(C)O)C(N)=O [ID, GlcNAcMurNAc-F-Thr-D-isoGln-F-Ala-NHDPG]	–	–	–	0 pg/mL	250 pg/mL	1060 pg/mL	10 pg/mL	16 pg/mL	8 pg/mL	90 pg/mL	–
CCCCCCCCCCCCCCCC(=O)OCC(COC(=O)C(C)NC(=O)CCC(NC(=O)C(NC(=O)C(C)OC1C(NC(C)=O)C(O)OC(CO)C1OC1OC(CO)C(O)C(O)C1NC(C)=O)C(C)O)C(N)=O)OC(=O)CCCCCCCCCCCCCCC [IID, GlcNAcMurNAc-F-Thr-D-isoGln-F-Ala-DPG]	–	–	–	320 pg/mL	1080 pg/mL	2150 pg/mL	70 pg/mL	14 pg/mL	170 pg/mL	690 pg/mL	TNF (pg/ml) at given Concentration of Compound [2, 13]: 70 pg/mL
CCCCCCCCCCCCCCCC(=O)OCC(COC(=O)C(C)NC(=O)CCC(NC(=O)C(CO)NC(=O)C(C)OC1C(NC(C)=O)C(O)OC(CO)C1OC1OC(CO)C(O)C(O)C1NC(C)=O)C(N)=O)OC(=O)CCCCCCCCCCCCCCC [IIE, GlcNAcMurNAc-F-Ser-D-isoGln-F-Ala-DPG]	–	–	–	–	–	–	–	–	–	–	TNF (pg/ml) at given Concentration of Compound [2, 21]: 150 pg/mL; TNF (pg/ml) at given Concentration of Compound [2, 22]: 800 pg/mL; TNF (pg/ml) at given Concentration of Compound [2, 23]: 1500 pg/mL
CCCCCCCCCCCCCCCC(=O)OCC(COC(=O)C(C)NC(=O)CCC(NC(=O)C(NC(=O)C(C)OC1C(NC(C)=O)C(O)OC(CO)C1OC1OC(CO)C(O)C(O)C1NC(C)=O)C(C)C)C(N)=O)OC(=O)CCCCCCCCCCCCCCC [IIF, GlcNAcMurNAc-F-Val-D-isoGln-F-Ala-DpG]	–	–	–	440 pg/mL	480 pg/mL	400 pg/mL	220 pg/mL	212 pg/mL	260 pg/mL	260 pg/mL	TNF (pg/ml) at given Concentration of Compound [2, 13]: 510 pg/mL
CCCCCCCCCCCCCCCC(=O)OCC(COC(=O)C(NC(=O)CCC(NC(=O)C(C)NC(=O)C(C)OC1C(NC(C)=O)C(O)OC(CO)C1OC1OC(CO)C(O)C(O)C1NC(C)=O)C(N)=O)C(C)C)OC(=O)CCCCCCCCCCCCCCC [IIG, GlcNAcMurNAc-F-Ala-D-isoGln-F-Val-DpG]	–	–	–	–	–	–	–	–	–	–	TNF (pg/ml) at given Concentration of Compound [2, 21]: 1150 pg/mL; TNF (pg/ml) at given Concentration of Compound [2, 22]: 1500 pg/mL; TNF (pg/ml) at given Concentration of Compound [2, 23]: 1400 pg/mL
